Reference: patent US20100137398A1, “USE OF HDAC INHIBITORS FOR THE TREATMENT OF GASTROINTESTINAL CANCERS” (NOVARTIS AG, priority 2007, published 2010)

Key:
[1] = system: 36 colon cancer cell lines; assay: Monolayer growth inhibition assay, panel summary; assay type: cell-based; conditions: 3 days treatment
Excerpt: (§1) The MTT is a colorimetric assay to determine the cell proliferation rate. The yellow tetrazolium MTT (3-(4, 5-dimethylthiazolyl-2)-2, 5-diphenyltetrazolium bromide) is reduced, by metabolically active cells, in part by the action of dehydrogenase enzymes, to generate reducing equivalents such as NADH and NADPH. The resulting intracellular purple formazan can be solubilized and quantified by spectrophotometric means. The signals produced is directly proportional to the cell numbers. Describing the MTT assay in detail, experiments were done using six-point or 9 point drug titrations in multi-well tissue culture dishes, with outer rows left empty. Cells were suspended in complete media at densities of between 10^3 and 10^4 cell/ml, respectively, and added per well. The appropriate medium (200 μl) was then added. […] This plate was incubated at 37° for 4 hours and the optical density was measured on a Molecular Devices Thermomax at 490 nm using the Softmax program. […]
(§2) Compound addition began 24 hours after seeding, the same time as the T0 determination. […] The MTS solution was added (as for the T0 plate) and read four hours later. […]
Colon cancer cell lines were treated with DMSO vehicle control or varying concentrations of LBH589 for 3 days. Cell proliferation was measured on the day of cell plating and on the third day post-treatment. IC50 and LD50 values were calculated as described above.

[2] = system: HCT116 colon cancer cells; assay: HCT116 xenograft model, tumor growth; assay type: in vivo, Female athymic nude mice
Procedure: Female athymic nude mice were implanted subcutaneously with HCT116 colon cancer cells. […] Mice were treated with LBH589 at 5, 10 or 20 mg/kg intravenously (iv) 5 times a week for 3 weeks or 75 mg/kg of 5-Fluorouracil intravenously once a week for 3 weeks. Animals were calipered weekly. Compound activity was determined as the percent change in tumor volume of treated animals over control animals (% T/C). The percentage of regression was determined as the percent change in the final tumor volume at the end of the study over the starting tumor volume. […] The results are described in FIG. 1.

[3] = system: HPAC pancreatic cancer cell line; assay: Cell proliferation assay, pancreatic cancer cell lines; assay type: cell-based
Excerpt: (§3) The MTT is a colorimetric assay to determine the cell proliferation rate. The yellow tetrazolium MTT (3-(4, 5-dimethylthiazolyl-2)-2, 5-diphenyltetrazolium bromide) is reduced, by metabolically active cells, in part by the action of dehydrogenase enzymes, to generate reducing equivalents such as NADH and NADPH. The resulting intracellular purple formazan can be solubilized and quantified by spectrophotometric means. The signals produced is directly proportional to the cell numbers. Describing the MTT assay in detail, experiments were done using six-point or 9 point drug titrations in multi-well tissue culture dishes, with outer rows left empty. Cells were suspended in complete media at densities of between 10^3 and 10^4 cell/ml, respectively, and added per well. The appropriate medium (200 μl) was then added. Twenty-four hours later, 10 μl of MTS solution, were added to one plates to determine the activity at the time of compound addition (T0). This plate was incubated at 37° for 4 hours and the optical density was measured on a Molecular Devices Thermomax at 490 nm using the Softmax program. The T0 plate served as a reference for initial activity at the beginning of the experiment.
(§4) Compound addition began 24 hours after seeding, the same time as the T0 determination. Serial dilutions at 4-fold 2-fold, 1-fold, 0.5-fold, 0.25-fold and 0.125-fold of previously determined IC50 values of each compound were made in a 96-deep well plate with the highest concentrations on the edge of the plate. Each of the six dilutions were added in triplicate and complete medium was added to the empty outer rows, without cells. The compounds were added to the plates singly or in combination with Compound III (LBH589). The plates were incubated at 37° C. for 72 hours from seeding. The MTS solution was added (as for the T0 plate) and read four hours later. In order to analyze the data, the average value of media alone (background) was subtracted from each experimental well and the triplicate values were averaged for each compound dilution. The following formulas were used to calculate percent growth.
(§5) If X>T0, % Growth=100×(X−T0)/(GC−T0))
(§6) If X<T0, % Growth=100×(X−T0)/T0)
(§7) T0=average value of T0 minus background
(§8) GC=average value of untreated cells (in triplicate) minus background X=average value, of compound treated cells (in triplicate) minus background
(§9) IC50 the concentration of LBH589 required to inhibit cell growth by 50% and LD50s the concentration required to reduce cell number (kill cells) to 50% the original innoculum were determined. The “% Growth” was plotted against compound concentration and used to calculate IC50s and LD50s, employing the user-defined spline function in Microsoft Excel.
(§10) Pancreatic cancer cell lines were treated with DMSO vehicle control or varying concentrations of LBH589 for 3 days. Cell proliferation was measured on the day of cell plating and on the third day post-treatment. IC50 and LD50 values were calculated as described above.

[4] = system: Hs766T pancreatic cancer cell line; assay: as above; assay type: cell-based
Excerpt: as §3, §4, §5, §6, §7, §8, §9, §10

[5] = system: AsPC1 pancreatic cancer cell line; assay: as above; assay type: cell-based
Excerpt: as §3, §4, §5, §6, §7, §8, §9, §10

[6] = system: MiaPaCa2 pancreatic cancer cell line; assay: as above; assay type: cell-based
Excerpt: as §3, §4, §5, §6, §7, §8, §9, §10

[7] = system: Capan1 pancreatic cancer cell line; assay: as above; assay type: cell-based
Excerpt: as §3, §4, §5, §6, §7, §8, §9, §10

[8] = system: SU.86.86 pancreatic cancer cell line; assay: as above; assay type: cell-based
Excerpt: as §3, §4, §5, §6, §7, §8, §9, §10

[9] = system: Panc10.05 pancreatic cancer cell line; assay: as above; assay type: cell-based
Excerpt: as §3, §4, §5, §6, §7, §8, §9, §10

[10] = system: Panc2.03 pancreatic cancer cell line; assay: as above; assay type: cell-based
Excerpt: as §3, §4, §5, §6, §7, §8, §9, §10

[11] = system: BxPC3 pancreatic cancer cell line; assay: as above; assay type: cell-based
Excerpt: as §3, §4, §5, §6, §7, §8, §9, §10

[12] = system: Panc4.03 pancreatic cancer cell line; assay: as above; assay type: cell-based
Excerpt: as §3, §4, §5, §6, §7, §8, §9, §10

[13] = system: Panc1 pancreatic cancer cell line; assay: as above; assay type: cell-based
Excerpt: as §3, §4, §5, §6, §7, §8, §9, §10

[14] = system: Panc3.27 pancreatic cancer cell line; assay: as above; assay type: cell-based
Excerpt: as §3, §4, §5, §6, §7, §8, §9, §10

[15] = system: 12 pancreatic cancer cell lines; assay: Cell proliferation assay, panel summary; assay type: cell-based; conditions: 3 days treatment
Excerpt: as §1, §2, §10

[16] = 3 days, concentration reducing cell number to 50% of original inoculum

For `Cc1[nH]c2ccccc2c1CCNCc1ccc(/C=C/C(=O)NO)cc1` [LBH589, N-hydroxy-3-[4-[[[2-(2-methyl-1H-indol-3-yl)ethyl]-amino]methyl]phenyl]-2E-2-propenamide], the IC50 values ([1]; all 36 colon cancer cell lines) was “low nanomolar”, the LD50 ([1]; great majority of the colon cancer cell lines (n=31)) was < 1 µM and the “% T/C (percent change in tumor volume of treated over control animals)” value ([2]; 5 mg/kg intravenously 5 times a week for 3 weeks) was 17%. For the same compound, the “% T/C (percent change in tumor volume of treated over control animals)” value ([2]; 10 mg/kg intravenously 5 times a week for 3 weeks) was 6%, the “tumor regression (percent change in final tumor volume over starting tumor volume)” value ([2]; 20 mg/kg intravenously 5 times a week for 3 weeks) was 8% and the “LD50” value [3, 16] was 2051.6 nM. The IC50 ([3]; Homo sapiens, 72 h, 3 days treatment) was 123 nM, the IC50 ([4]; 72 h, 3 days treatment) was 14.1 nM and the “LD50” value [4, 16] was 119.9 nM. For the same compound, the “LD50” value ([5]; AsPC1, 3 days, concentration reducing cell number to 50% of original inoculum) was 372.4 nM, the IC50 ([5]; Homo sapiens, 72 h, AsPC1, 3 days treatment) was 25.1 nM and the IC50 ([6]; Homo sapiens, MIA PaCa-2, 72 h, MiaPaCa2, 3 days treatment) was 14.1 nM. The “LD50” value ([6]; MiaPaCa2, 3 days, concentration reducing cell number to 50% of original inoculum) was 59.5 nM, the “LD50” value ([7]; Capan1, 3 days, concentration reducing cell number to 50% of original inoculum) was 191.5 nM and the IC50 ([7]; Homo sapiens, CAPAN-1, 72 h, Capan1, 3 days treatment) was 55.6 nM. The IC50 ([8]; Homo sapiens, 72 h, SU.86.86, 3 days treatment) was 51 nM, the “LD50” value ([8]; SU.86.86, 3 days, concentration reducing cell number to 50% of original inoculum) was 170.4 nM and the IC50 ([9]; Homo sapiens, Panc1005, 72 h, Panc10.05, 3 days treatment) was 31.8 nM. For the same compound, the “LD50” value ([9]; Panc10.05, 3 days, concentration reducing cell number to 50% of original inoculum) was 282.4 nM, the IC50 ([10]; Homo sapiens, Panc203, 72 h, Panc2.03, 3 days treatment) was 22.4 nM and the “LD50” value ([10]; Panc2.03, 3 days, concentration reducing cell number to 50% of original inoculum) was 599.5 nM. The “LD50” value ([11]; BxPC3, 3 days, concentration reducing cell number to 50% of original inoculum) was 104.8 nM, the IC50 ([11]; Homo sapiens, BXPC-3, 72 h, BxPC3, 3 days treatment) was 15.9 nM and the “LD50” value ([12]; Panc4.03, 3 days, concentration reducing cell number to 50% of original inoculum) was >10 µM. The IC50 ([12]; Pancreatic cancer cell, 72 h, Panc4.03, 3 days treatment) was 20.3 nM, the IC50 ([13]; Homo sapiens, PANC-1, 72 h, Panc1, 3 days treatment) was 18.9 nM and the “LD50” value ([13]; Panc1, 3 days, concentration reducing cell number to 50% of original inoculum) was 175.4 nM. The “LD50” value ([14]; Panc3.27, 3 days, concentration reducing cell number to 50% of original inoculum) was 276.8 nM, the IC50 ([14]; Pancreatic cancer cell, 72 h, Panc3.27, 3 days treatment) was 38.5 nM and the IC50 values ([15]; all 12 pancreatic cancer cell lines) was “low nanomolar”. For the same compound, the LD50 ([15]; majority of the pancreatic cancer cell lines (n=10)) was < 1 µM.
